For data set [1], the target named is T1, GAL4 DBD (1-147)-CfEcR(DEF)/VP16AD-βRXREF-LmUSPEF (Choristoneura fumiferana, UniProt O77240).
T1 sequence (O77240 191-513): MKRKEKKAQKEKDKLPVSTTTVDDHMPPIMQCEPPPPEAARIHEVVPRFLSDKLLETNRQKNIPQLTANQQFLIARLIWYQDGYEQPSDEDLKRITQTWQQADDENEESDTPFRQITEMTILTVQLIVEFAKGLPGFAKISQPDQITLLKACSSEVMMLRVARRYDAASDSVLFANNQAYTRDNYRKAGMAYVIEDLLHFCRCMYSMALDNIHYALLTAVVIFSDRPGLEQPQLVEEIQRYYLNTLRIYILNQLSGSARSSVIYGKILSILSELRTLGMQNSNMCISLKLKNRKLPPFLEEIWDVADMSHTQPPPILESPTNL
T1 sequence (P28702 296-455 partner limits assumed): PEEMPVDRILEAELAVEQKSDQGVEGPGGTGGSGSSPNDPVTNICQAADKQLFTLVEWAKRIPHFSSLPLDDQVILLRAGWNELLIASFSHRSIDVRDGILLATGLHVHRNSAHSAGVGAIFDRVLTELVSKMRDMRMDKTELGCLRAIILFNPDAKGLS
In words: 27-63 assay: luciferase reporter gene expression in stable CHO cell clone 27-63. The note with it: for EC50: 27-63 EC50 (μM), CHO clone 27-63, luciferase reporter 48 h after treatment, dose response 8 concentrations 33 μM to 0.01 μM, three-parameter logistic model; for 27-63 Rel Max FI: maximum fold induction at any concentration relative to maximum fold induction of GS™-E ligand, CHO clone 27-63. From the text: GAL4 DBD (1-147)-CfEcR(DEF)/VP16AD-βRXREF-LmUSPEF: The wild-type D, E, and F domains from spruce budworm Choristoneura fumiferana EcR (“CfEcR-DEF”; SEQ ID NO: 1) were fused to a GAL4 DNA binding domain (“Gal4 DBD1-147”; nucleotides 31 to 471 of SEQ ID NO: 2) and placed under the control of a phosphoglycerate kinase promoter (“PGK”; SEQ ID NO: 3). Helices 1 through 8 of the EF domains from Homo sapiens RXRβ and helices 9 through 12 of the EF domains of Locusta migratoria Ultraspiracle Protein (“HsRXRβ-EF-LmUSP-EF”; SEQ ID NO: 4) were fused to the transactivation domain from VP16 (“VP16AD”; SEQ ID NO: 5) and placed under the control of an elongation factor-1α promoter (“EF-1α”; SEQ ID NO: 6). Five consensus GAL4 response element binding sites (“5XGAL4RE”; comprising 5 copies of a GAL4RE comprising SEQ ID NO: 7) were fused to a synthetic TATA minimal promoter (SEQ ID NO: 8) and placed upstream of the luciferase reporter gene (SEQ ID NO: 9).
CHO cells were transiently transfected with transcription cassettes for GAL4 DBD (1-147) CfEcR(DEF) and for VP16AD βRXREF-LmUSPEF controlled by ubiquitously active cellular promoters (PGK and EF-1α, respectively) on a single plasmid. Stably transfected cells were selected by Zeocin resistance. Individually isolated CHO cell clones were transiently transfected with a GAL4 RE-luciferase reporter (pFR Luc). 27-63 clone was selected using Hygromycin.
(§1) Cells were trypsinized and diluted to a concentration of 2.5×10^4 cells mL. 100 μL of cell suspension was placed in each well of a 96 well plate and incubated at 37° C. under 5% CO2 for 24 h. Ligand stock solutions were prepared in DMSO and diluted 300 fold for all treatments. Dose response testing consisted of 8 concentrations ranging from 33 μM to 0.01 μM.
(§2) Luciferase reporter gene expression was measured 48 h after cell treatment using Bright-Glo™ Luciferase Assay System from Promega (E2650). Luminescence was detected at room temperature using a Dynex MLX microtiter plate luminometer.
(§3) Fold inductions were calculated from single dose testing by dividing relative light units (RLU) in ligand treated cells by RLU in DMSO treated cells. BC50s were calculated from dose response data using a three-parameter logistic model.
On the technique in general: In a reporter assay the amount or activity of a reporter protein is the signal.

Data set [2] concerns the target T2, Bombyx mori EcR (VP16 fusion, switch construct CVBE) with 6XEcRE LacZ reporter (Bombyx mori, UniProt P49881).
T2 construct: expressed in transfected cells; host or cells: Human 293 kidney (HEK-293) cells, retrovirally infected, clone Z3
T2 sequence (P49881 86-606 limits assumed): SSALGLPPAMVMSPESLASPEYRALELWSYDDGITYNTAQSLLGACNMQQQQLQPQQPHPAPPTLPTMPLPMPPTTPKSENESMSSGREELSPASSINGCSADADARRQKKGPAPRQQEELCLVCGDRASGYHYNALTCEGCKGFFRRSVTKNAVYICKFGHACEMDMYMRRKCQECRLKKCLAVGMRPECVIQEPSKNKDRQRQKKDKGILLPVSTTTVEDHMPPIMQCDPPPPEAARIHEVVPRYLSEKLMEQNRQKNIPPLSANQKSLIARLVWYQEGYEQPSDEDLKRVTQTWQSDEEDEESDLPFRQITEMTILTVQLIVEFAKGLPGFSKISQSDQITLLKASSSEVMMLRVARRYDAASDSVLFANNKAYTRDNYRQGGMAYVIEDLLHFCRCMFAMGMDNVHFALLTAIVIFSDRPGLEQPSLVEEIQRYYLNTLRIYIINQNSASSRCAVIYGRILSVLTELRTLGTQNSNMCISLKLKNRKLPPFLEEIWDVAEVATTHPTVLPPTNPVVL
T2 sequence (P19793 1-462 partner): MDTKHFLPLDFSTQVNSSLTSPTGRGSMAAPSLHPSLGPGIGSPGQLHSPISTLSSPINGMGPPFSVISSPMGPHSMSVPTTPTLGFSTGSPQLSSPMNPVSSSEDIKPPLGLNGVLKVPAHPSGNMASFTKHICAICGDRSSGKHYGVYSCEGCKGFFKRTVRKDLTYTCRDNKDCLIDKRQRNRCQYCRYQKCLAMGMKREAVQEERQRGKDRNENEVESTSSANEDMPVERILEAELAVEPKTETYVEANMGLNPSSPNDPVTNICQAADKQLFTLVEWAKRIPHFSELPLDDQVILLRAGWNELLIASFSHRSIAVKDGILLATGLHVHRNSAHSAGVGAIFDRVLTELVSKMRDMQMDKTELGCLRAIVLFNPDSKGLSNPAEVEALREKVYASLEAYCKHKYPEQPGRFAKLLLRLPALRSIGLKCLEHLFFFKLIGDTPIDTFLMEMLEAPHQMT
In words: Z3 assay: β-galactosidase (LacZ) reporter gene fold induction in stably transformed human 293 kidney cells (clone Z3). Type of data set: cell-based. The note with it: for Fold Induction Average, Z3 Assay (33 μM): single dose 33 μM, ligand treated / DMSO treated cells. The source says:
Dr. F. Gage provided a population of stably transformed cells containing CVBE and 6XEcRE as described in Suhr, S. T., Gil, E. B., Senut M. C., Gage, F. H. (1998) Proc. Natl. Acad. Sci. USA 95, 7999-804. Human 293 kidney cells, also referred to as HEK-293 cells, were sequentially infected with retroviral vectors encoding first the switch construct CVBE, and subsequently the reporter construct 6XEcRE Lac Z. The switch construct contained the coding sequence for amino acids 26-546 from Bombyx mori EcR (BE) (Iatrou) inserted in frame and downstream of the VP16 transactivation domain (VBE). A synthetic ATG start codon was placed under the control of cytomegalovirus (CVBE) immediate early promoter and flanked by long terminal repeats (LTR). The reporter construct contained six copies of the ecdysone response element (EcRE) binding site placed upstream of LacZ and flanked on both sides with LTR sequences (6XEcRE).
Dilution cloning was used to isolate individual clones. Clones were selected using 450 ug/mL G418 and 100 ng/mL puromycin. Individual clones were evaluated based on their response in the presence and absence of test ligands. Clone Z3 was selected for screening and SAR purposes.
Human 293 kidney cells stably transformed with CVBE and 6XEcRE lack were maintained in Minimum Essential Medium (Mediates, 10-010-CV) containing 10% FBS (Life Technologies, 26140-087), […] G418 (Mediates, 30-234-CR), and […] (Sigma, P-7255), at 37° C. in an atmosphere containing 5% CO2 and were subculture when they reached 75% confluence.
Z3 cells were seeded into 96-well tissue culture plates at a concentration of 2.5×10^3 cells per well and incubated at 37° C. in 5% CO2 for twenty-four hours. Stock solutions of ligands were prepared in DMSO. Ligand stock solutions were diluted 100 fold in media and 50 μL of this diluted ligand solution (33 μM) was added to cells. The final concentration of DMSO was maintained at […] in both controls and treatments.
Reporter gene expression was evaluated 48 hours after treatment of cells, β-galactosidase activity was measured using Gal Screen™ bioluminescent reporter gene assay system from Tropix (GSY1000).
Flanking both constructs are long terminal repeats, G418 and puromycin are selectable markers, CMV is the cytomegalovirus promoter, VBE is coding sequence for amino acids 26-546 from Bombyx mori EcR inserted downstream of the VP16 transactivation domain, 6×EcRE is six copies of the ecdysone response element, lacZ encodes for the reporter enzyme β-galactosidase. Suhr, S. T., Gil, E. B., Senut M. C., Gage, F. H. (1998) Proc. Natl. Acad. Sci. USA 95, 7999-804. Swevers, L., Drevet, J. R., Lunke, M. D., Iatrou, K. (1995) Insect Biochem. Mol. Biol. 25, 857-866.

The target in data set [3] is T3, GAL4 DBD-CfEcR(DEF)/VP16AD-MmRXRE (Choristoneura fumiferana, UniProt O77240).
T3 sequence (O77240 1-513): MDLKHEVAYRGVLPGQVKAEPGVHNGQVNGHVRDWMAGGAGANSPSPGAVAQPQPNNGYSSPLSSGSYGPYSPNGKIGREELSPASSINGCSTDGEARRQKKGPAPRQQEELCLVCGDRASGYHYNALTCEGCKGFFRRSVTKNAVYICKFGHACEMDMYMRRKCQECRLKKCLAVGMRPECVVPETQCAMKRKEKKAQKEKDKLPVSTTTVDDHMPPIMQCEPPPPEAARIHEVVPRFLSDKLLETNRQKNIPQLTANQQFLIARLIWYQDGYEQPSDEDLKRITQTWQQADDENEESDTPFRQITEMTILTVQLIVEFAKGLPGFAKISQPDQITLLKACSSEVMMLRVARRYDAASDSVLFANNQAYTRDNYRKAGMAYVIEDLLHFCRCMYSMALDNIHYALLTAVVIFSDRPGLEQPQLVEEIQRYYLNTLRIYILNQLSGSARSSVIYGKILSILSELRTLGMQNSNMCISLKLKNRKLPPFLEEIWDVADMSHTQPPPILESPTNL
The data set can be described thus: cell-based.
Source text: GAL4 DBD-CfEcR(DEF)/VP16AD-MmRXRE: The wild-type D, E, and F domains from spruce budworm Choristoneura fumiferana EcR (“CfEcR-DEF”; SEQ ID NO: 1) were fused to a GAL4 DNA binding domain (“Gal4 DBD1-147”; nucleotides 31 to 471 of SEQ ID NO: 2) and placed under the control of the SV40e promoter of pM vector (PT3119-5, Clontech, Palo Alto, Calif.). The D and E domains from Mus Musculus RXR (“MmRXR-DE”; SEQ ID NO: 10) were fused to the transactivation domain from VP16 (“VP16AD”; SEQ ID NO: 5) and placed under the control of the SV40e promoter of the pVP16 vector (PT3127-5, Clontech, Palo Alto, Calif.).
CHO cells were transienty transfected with transcription cassettes for GAL4 DBD-CfEcR(DEF) and for VP16AD-MmRXRE controlled by SV40e promoters. Stably transfected cells were selected using Hygromycin. Individually isolated CHO cell clones were transiently transfected with a GAL4 RE-luciferase reporter (pMR-Luc, Stratagene, La Jolla, Calif.). The 13B3 clone was selected using Zeocin.
as §1, §2, §3

Where “and” joins values, the source holds several entries; their conditions need not be identical. Equal values may be shown once. Read-outs that look alike come from different tables or passages of the source.

In the case of `Cc1ccc(S(=O)(=O)NC2(C(=O)c3cc(C)cc(C)c3)CCCC2)cc1` [Example 180], in data set [1], the EC50 is 1.24 µM and 1.8 µM; the “27-63 Rel Max FI” value is 0.86 and 1.00.
Take `Cc1cc(C)cc(C(=O)C2(NS(=O)(=O)c3ccc4c(c3)COCO4)CCCCC2)c1` [Example 179]: in data set [1], the EC50 is 6.53 µM and the “27-63 Rel Max FI” value is reported as 0.28.
As to `CC(C)(NC(=O)c1ccc(Cl)cc1)C(=O)c1ccccc1` [Example 95], the CC50 in data set [2] (average, dose response, three-parameter logistic model, read-out: Z3 LC50) was found to be 820 nM. In data set [2] (maximum fold induction at any concentration relative to that of GS-E ligand), the “Z3 Rel Max FI” value was 2.27. Besides, in data set [2], the “Fold Induction Average, Z3 Assay (33 μM)” value is 4. Besides, the “Fold Induction Average, 13B3 Assay (33 μM)” value in data set [3] (single dose 33 μM, RLU ligand treated / RLU DMSO treated cells) was found to be 1.
For the compound `CC(=O)NC(C(=O)c1ccccc1)c1ccc(C)cc1` (stereo not drawn) [Example 93], in data set [2], the “Fold Induction Average, Z3 Assay (33 μM)” value stood at 1. Further, the “Fold Induction Average, 13B3 Assay (33 μM)” value in data set [3] is listed as 0.
The corresponding values for `CCC(CC)(NC(=O)c1cccc(OC)c1C)C(=O)c1ccc2c(c1)OCO2` [Example 59] are 2 and 0.
The corresponding values for `CCC(CC)(NC(=O)c1cccc(OC)c1C)C(=O)c1ccc(OC)cc1` [Example 58] are 4 and 4.
Turning to `Cc1c(C(=O)NC2(C(=O)c3ccccc3)CCCC2)ccc2c1OCO2` [Example 23], in data set [2], the “Fold Induction Average, Z3 Assay (33 μM)” value was determined as 32. The “Fold Induction Average, 13B3 Assay (33 μM)” value in data set [3] turned out to be 2.
Turning to `COc1cccc(C(=O)NC(C(=O)c2cccc(C)c2)C(C)(C)C)c1C` (stereo not drawn) [Example 113], the “Fold Induction Average, Z3 Assay (33 μM)” value in data set [2] amounted to 4. In addition, the “Fold Induction Average, 13B3 Assay (33 μM)” value in data set [3] is recorded as 1.
Taken in the same sequence, the figures for `COc1cccc(C(=O)NC2(C(=O)c3ccc(F)c(C)c3)CC2)c1C` [Example 19] were 6 and 0.
The corresponding values for `COc1cccc(C(=O)C2(NC(=O)c3cccc(OC)c3C)CC2)c1` [Example 99] are 1 and 0.
Taken in the same sequence, the figures for `COc1ccccc1C(=O)NC(C)(C)C(=O)c1cc(C)cc(C)c1` [Example 119] were 1 and 0.

The term EC50 denotes the concentration that produces a half-maximal response.

For the origin of these results see patent US8129355B2, “Ketone ligands for modulating the expression of exogenous genes via an ecdysone receptor complex” (priority 2002, dated 2012).
